US20240115547A1, “PSYCHOTROPIC AGENTS AND USES THEREOF” (LB PHARMACEUTICALS INC., priority 2021, published 2024)

System: Dopamine (e.g., D2/D3)
Assay: Dopamine RO % by raclopride PET after LB-102, various dosage regimens (Example 3)
Format: in vivo, human
Details: for Dopamine RO % (Caudate + Putamen): group mean
Description: Healthy subjects were dosed orally with LB102 of 50 mg QD (n=4), 75 mg QD (n=4), 100 mg QD (n=4), 50 mg SS (n=2), or 100 mg SS (n=2). Subjects were, on average, 33 years old. Subjects dosed QD were given a single dose on day 1 after which PET scans were obtained; and subjects dosed SS, i.e., steady state, were dosed once a day for 4 days and PET scans were obtained after dosing on Day 4.
Dynamic […] raclopride PET scans were obtained 0 h, 2.5 h, 7.5 h, and 23.5 h after LB-102 administration for the 50 mg and 100 mg QD treatment groups and after LB-102 administration of Day 4 for the 50 mg SS and 100 mg SS treatment groups; and 0 h, 3.5 h, 23.5 h, and 47.5 h after LB-102 administration for the 75 mg QD treatment group. Dopamine % RO were calculated using the STRM method (https://pubmed.ncbi.nlm.nih.gov/9345505/, which is incorporated herein by reference) and the combined RO % (average of caudate and putamen RO %) are shown as squares FIGS. 5A (50 mg QD), 5B (75 mg QD), 5C (100 mg QD); and FIGS. 6A (50 mg SS Day 4) and 6B (100 mg SS Day 4); and summarized in Table 3-A below.
Dynamic ^11C raclopride PET scan results for calculation of dopamine RO % were measured in caudate, putamen, thalamus, and temporal lobe of each subject tested, and are summarized in Tables 3-B to 3-F below.

[1] = 75 mg QD, Subject 3, 3.5 h after LB-102 admin.
[2] = 75 mg QD, Subject 3, 23.5 h after LB-102 admin.
[3] = 75 mg QD, Subject 3, 47.5 h after LB-102 admin.
[4] = 75 mg QD, Subject 4, 3.5 h after LB-102 admin.
[5] = 75 mg QD, Subject 4, 23.5 h after LB-102 admin.
[6] = 75 mg QD, Subject 4, 47.5 h after LB-102 admin.
[7] = 100 mg QD, Subject 1, 2.5 h after LB-102 admin.
[8] = 100 mg QD, Subject 1, 7.5 h after LB-102 admin.
[9] = 100 mg QD, Subject 1, 23.5 h after LB-102 admin.
[10] = 100 mg QD, Subject 2, 2.5 h after LB-102 admin.
[11] = 100 mg QD, Subject 2, 7.5 h after LB-102 admin.
[12] = 100 mg QD, Subject 2, 23.5 h after LB-102 admin.
[13] = 100 mg QD, Subject 3, 2.5 h after LB-102 admin.
[14] = 100 mg QD, Subject 3, 7.5 h after LB-102 admin.
[15] = 100 mg QD, Subject 3, 23.5 h after LB-102 admin.
[16] = 100 mg QD, Subject 4, 2.5 h after LB-102 admin.
[17] = 100 mg QD, Subject 4, 7.5 h after LB-102 admin.
[18] = 100 mg QD, Subject 4, 23.5 h after LB-102 admin.
[19] = 100 mg SS (Day 4), Subject 3, ~3 h after LB-102 admin.
[20] = 100 mg SS (Day 4), Subject 3, ~8 h after LB-102 admin.
[21] = 100 mg SS (Day 4), Subject 3, ~24 h after LB-102 admin.
[22] = 100 mg SS (Day 4), Subject 4, ~3 h after LB-102 admin.
[23] = 100 mg SS (Day 4), Subject 4, ~8 h after LB-102 admin.
[24] = 100 mg SS (Day 4), Subject 4, ~24 h after LB-102 admin.

`CCN1CCCC1CNC(=O)c1cc(S(=O)(=O)CC)c(NC)cc1OC` (stereo not shown) [LB-102] was tested, and the “Dopamine RO % Putamen” value [1] was 50%, the “Dopamine RO % Temporal lobe” value [1] was 28% and the “Dopamine RO % Thalamus” value [1] was 37%. For the same molecule, the “Dopamine RO % Caudate” value [2] was 69%, the “Dopamine RO % Putamen” value [2] was 53% and the “Dopamine RO % Temporal lobe” value [2] was 20%. For the same molecule, the “Dopamine RO % Thalamus” value [2] was 36%, the “Dopamine RO % Caudate” value [3] was 52% and the “Dopamine RO % Putamen” value [3] was 38%. The “Dopamine RO % Temporal lobe” value [3] was 16%, the “Dopamine RO % Thalamus” value [3] was 20% and the “Dopamine RO % Caudate” value [4] was 5%. For the same molecule, the “Dopamine RO % Putamen” value [4] was 2%, the “Dopamine RO % Temporal lobe” value [4] was −2% and the “Dopamine RO % Thalamus” value [4] was 5%. For the same molecule, the “Dopamine RO % Caudate” value [5] was 48%, the “Dopamine RO % Putamen” value [5] was 37% and the “Dopamine RO % Temporal lobe” value [5] was 27%. The “Dopamine RO % Thalamus” value [5] was 21%, the “Dopamine RO % Caudate” value [6] was 13% and the “Dopamine RO % Putamen” value [6] was 12%. For the same molecule, the “Dopamine RO % Temporal lobe” value [6] was −6%, the “Dopamine RO % Thalamus” value [6] was −25% and the “Dopamine RO % (Caudate + Putamen)” value (100 mg QD, 0 h after LB-102 administration) was 0%. For the same molecule, the “Dopamine RO % (Caudate + Putamen)” value (100 mg QD, 3 h after LB-102 administration) was 41%, the “Dopamine RO % (Caudate + Putamen)” value (100 mg QD, 8 h after LB-102 administration) was 70% and the “Dopamine RO % (Caudate + Putamen)” value (100 mg QD, 24 h after LB-102 administration) was 69%. For the same molecule, the “Dopamine RO % Caudate” value [7] was 39%, the “Dopamine RO % Putamen” value [7] was 32% and the “Dopamine RO % Temporal lobe” value [7] was 18%. For the same molecule, the “Dopamine RO % Thalamus” value [7] was 28%, the “Dopamine RO % Caudate” value [8] was 75% and the “Dopamine RO % Putamen” value [8] was 67%. The “Dopamine RO % Temporal lobe” value [8] was 24%, the “Dopamine RO % Thalamus” value [8] was 40% and the “Dopamine RO % Caudate” value [9] was 76%. For the same molecule, the “Dopamine RO % Putamen” value [9] was 68%, the “Dopamine RO % Temporal lobe” value [9] was 13% and the “Dopamine RO % Thalamus” value [9] was 26%. For the same molecule, the “Dopamine RO % Caudate” value [10] was 56%, the “Dopamine RO % Putamen” value [10] was 52% and the “Dopamine RO % Temporal lobe” value [10] was 17%. The “Dopamine RO % Thalamus” value [10] was 42%, the “Dopamine RO % Caudate” value [11] was 78% and the “Dopamine RO % Putamen” value [11] was 75%. For the same molecule, the “Dopamine RO % Temporal lobe” value [11] was 17%, the “Dopamine RO % Thalamus” value [11] was 49% and the “Dopamine RO % Caudate” value [12] was 72%. The “Dopamine RO % Putamen” value [12] was 66%, the “Dopamine RO % Temporal lobe” value [12] was 22% and the “Dopamine RO % Thalamus” value [12] was 43%. The “Dopamine RO % Caudate” value [13] was 50%, the “Dopamine RO % Putamen” value [13] was 46% and the “Dopamine RO % Temporal lobe” value [13] was 20%. For the same molecule, the “Dopamine RO % Thalamus” value [13] was 34%, the “Dopamine RO % Caudate” value [14] was 84% and the “Dopamine RO % Putamen” value [14] was 77%. The “Dopamine RO % Temporal lobe” value [14] was 24%, the “Dopamine RO % Thalamus” value [14] was 46% and the “Dopamine RO % Caudate” value [15] was 76%. The “Dopamine RO % Putamen” value [15] was 69%, the “Dopamine RO % Temporal lobe” value [15] was 22% and the “Dopamine RO % Thalamus” value [15] was 39%. The “Dopamine RO % Caudate” value [16] was 26%, the “Dopamine RO % Putamen” value [16] was 25% and the “Dopamine RO % Temporal lobe” value [16] was 10%. For the same molecule, the “Dopamine RO % Thalamus” value [16] was 31%, the “Dopamine RO % Caudate” value [17] was 55% and the “Dopamine RO % Putamen” value [17] was 49%. For the same molecule, the “Dopamine RO % Temporal lobe” value [17] was 15%, the “Dopamine RO % Thalamus” value [17] was 49% and the “Dopamine RO % Caudate” value [18] was 68%. For the same molecule, the “Dopamine RO % Putamen” value [18] was 56%, the “Dopamine RO % Temporal lobe” value [18] was 15% and the “Dopamine RO % Thalamus” value [18] was 39%. For the same molecule, the “Dopamine RO % Caudate” value [19] was 84%, the “Dopamine RO % Putamen” value [19] was 80% and the “Dopamine RO % Temporal lobe” value [19] was 19%. The “Dopamine RO % Thalamus” value [19] was 50%, the “Dopamine RO % Caudate” value [20] was 86% and the “Dopamine RO % Putamen” value [20] was 83%. The “Dopamine RO % Temporal lobe” value [20] was 18%, the “Dopamine RO % Thalamus” value [20] was 51% and the “Dopamine RO % Caudate” value [21] was 80%. The “Dopamine RO % Putamen” value [21] was 73%, the “Dopamine RO % Temporal lobe” value [21] was 23% and the “Dopamine RO % Thalamus” value [21] was 48%. For the same molecule, the “Dopamine RO % Caudate” value [22] was 88%, the “Dopamine RO % Putamen” value [22] was 79% and the “Dopamine RO % Temporal lobe” value [22] was 32%. The “Dopamine RO % Thalamus” value [22] was 78%, the “Dopamine RO % Caudate” value [23] was 89% and the “Dopamine RO % Putamen” value [23] was 80%. For the same molecule, the “Dopamine RO % Temporal lobe” value [23] was 25%, the “Dopamine RO % Thalamus” value [23] was 80% and the “Dopamine RO % Caudate” value [24] was 83%. The “Dopamine RO % Putamen” value [24] was 72%, the “Dopamine RO % Temporal lobe” value [24] was 31% and the “Dopamine RO % Thalamus” value [24] was 69%. The “Dopamine RO % (Caudate + Putamen)” value (100 mg SS (once a day for 4 days), 3 h after Day 4 administration) was 88%, the “Dopamine RO % (Caudate + Putamen)” value (100 mg SS (once a day for 4 days), 8 h after Day 4 administration) was 82% and the “Dopamine RO % (Caudate + Putamen)” value (100 mg SS (once a day for 4 days), 24 h after Day 4 administration) was 76%. The “dopamine RO after plasma concentration dropped” value (after combined plasma concentration of LB-102 and amisulpride dropped sub 10 ng/mL) was “persisted significantly”.
